Test results as given in patent publication US20150018294A1, “MODULATORS OF TOUSLED KINASE IN CELLULAR PROCESSES” (priority 2012, published 2015).
Entries after “also recorded” stand apart in the source; their conditions may differ.

Assays:
[1] = test system: kinase panel (KinomeScan); assay: KinomeScan kinase panel (DiscoverRx); assay type: binding; settings: significantly inhibited = >60% at 10 μM
TLK1B = molecular target: T1, TLK1B (Homo sapiens, UniProt Q9UKI8); assay: TLK1B kinase assay (auto kinase assay with γ 32P ATP; recombinant TLK1B with Rad9 peptide); assay type: biochemical; settings: inactive defined at concentrations <10 μM
T1 sequence (Q9UKI8 1-549 isoform Q9UKI8-3): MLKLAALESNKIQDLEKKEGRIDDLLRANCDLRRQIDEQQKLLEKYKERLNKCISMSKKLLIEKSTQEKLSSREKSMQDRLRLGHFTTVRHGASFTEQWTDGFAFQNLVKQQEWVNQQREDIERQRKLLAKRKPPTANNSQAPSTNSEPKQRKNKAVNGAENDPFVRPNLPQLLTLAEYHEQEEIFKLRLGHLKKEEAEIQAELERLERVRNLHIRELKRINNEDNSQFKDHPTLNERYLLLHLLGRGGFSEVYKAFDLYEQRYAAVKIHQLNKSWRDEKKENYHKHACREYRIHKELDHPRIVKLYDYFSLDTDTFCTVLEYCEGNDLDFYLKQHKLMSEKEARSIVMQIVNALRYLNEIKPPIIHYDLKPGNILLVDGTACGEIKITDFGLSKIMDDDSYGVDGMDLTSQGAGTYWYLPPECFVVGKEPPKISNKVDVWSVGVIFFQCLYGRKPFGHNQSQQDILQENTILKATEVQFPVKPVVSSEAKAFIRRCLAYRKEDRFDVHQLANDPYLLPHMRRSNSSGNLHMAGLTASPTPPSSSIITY
Experimental: To identify inhibitors of TLK, we developed a high throughput screen with recombinant TLK1B, a small Rad9 peptide and the ADP Hunter reagent (DiscoveRx). Using this assay, the Innovative North Louisiana Experimental Therapeutics (INLET) screening core (affiliated with the FWCC) screened the Prestwick library, two other proprietary libraries, and a subset of the ChemDiv library (˜6000 compounds).
Following the initial fluorescent screen at a compound concentration of ˜5 μM, potential hits were tested with a more sensitive auto kinase assay with γ 32P ATP. Inhibition of auto phosphorylation was confirmed by TCA precipitable counts (FIG. 1A). The inhibitors are highly specific for TLKs. […] We have additional evidence for direct binding of these compounds to the recombinant protein (to be published elsewhere).
TlK1 immune complexes isolated from […] protein extracts using abtiserum made in our lab and Protein A beads. Adsorbed proteins were washed twice in kinase assay buffer (KAB) (50 mM HEPES pH 7.2, 10 mM MgCl2, 5 mM MnCl2, 2.5 mM EGTA, 1 mM DTT, 1 mM NaF, 0.2 mM sodium o vanadate, […] leupeptin, 2 g/ml aprotinin) and incubated for 15-30 min at 30° C. in KAB supplemented with 10 µM ATP, 10 Ci [−32P]ATP (>5000 Ci/mmol, GE). The proteins were separated on 10% SDS-PAGE gels, transferred to nitrocellulose before exposure on a Phosphorlmager; and then processed for WB with TLK1 antiserum. For kinase assays with recombinant TLK1B protein, the reactions were similar, and carried out with 10 ng TLK1B and 50 ng Rad9 peptide substrate. These were carried out to confirm the initial “hits” from the screen and further to obtain accurate ID50 values for the various inhibitors.

panel of cell lines = assay: Doubling in a larger panel of cell lines; assay type: cell-based; settings: inhibitor alone
Excerpt: inhibitors had generally similar potency in additive killing with doxo in both DU145 and PC3 (FIG. 6). The RMT potentiation is not limited to these two CaP cell lines, but is also true for MDA MB231 BCA cells (FIG. 6). […] The TLK inhibitors by themselves had little effect on MDA231 viability and doubling (Sup. FIG. 3). […] This is consistent with their proposed mechanism as inhibitors of DSB repair.

PC 3 (human CaP cells) = assay: IHC analysis of excised PC 3 tumors; design: species or system SCID/bg mice; settings: mouse, in vivo
Excerpt: Some features are immediately noticeable even upon H&E staining that could explain the tumor growth patterns. […] We interpret this as being the result of accumulation of DNA damage, including DSBs, which are not promptly repaired, even as they may be expected to occur spontaneously in many cells in the harsh environment of tumor growth. This has in fact been reported before and was attributed to localized hypoxia 24. […] The staining was not negative, as one may think, since inspection at higher magnification confirmed the expected pattern of exclusively nuclear staining and lower intensity in nucleoli. […] This is consistent with the γH2AX pattern, showing a large number of cells harboring repair foci, and thus likely arrested in replication (or progressing slowly through S phase). To further establish this, we looked at presence of RPA foci, which is indicative of stalled forks25. As expected from the large number of proliferating cells (PCNA positive) in control tumors, RPA1 Staining was very strong, and particularly in focal areas. RPA1 staining in tumors from doxo treated mice was interesting. […] In tumors from mice treated with doxo+THD, staining for RPA was very weak and consistent to that obtained for PCNA. […] However, we did stain for P Rad9 (S328) to confirm that the effects were mediated via TLK inhibition, in what we propose is part of a checkpoint deactivation mechanism following repair of spontaneous DNA damage. Indeed, numerous cells stained lightly for P Rad9 in untreated tumor cells in fact, they are perhaps a larger proportion than those staining for γH2AX that presumably represent cells with unrepaired DSBs.

MDA 231-Luc = MDA 231-Luc xenograft model; assay type: in vivo; settings: female SCID/bg mice, treatment groups as in PC 3 study
Excerpt: We used the breast cancer model cell line MDA 231-Luc, for more precise quantitation of tumor growth (photon emission is linear with the tumor cell number). Female SCID/bg mice (N=8 per group) received 1×10^6 cells and when the tumors reached ˜500 mm3 (˜104 photons/sec) they were assigned to four treatment groups, as in the study above (Sup. FIG. 4).

Which results are given for `CSc1ccc2c(c1)N(CCC1CCCCN1C)c1ccccc1S2` (centres unmarked) [THD, Thioridazine]?
inhibition of other kinases in the panel [1]: no other kinase in the panel was significantly inhibited; activity on TLK (TLK kinase assays) (TLK1B): active; also recorded: identified as TLK inhibitors; cell doubling / growth (panel of cell lines): not found very many cancer cell lines that were sensitive to THD; P Rad9 (S328) staining (PC 3 (human CaP cells)): severe suppression of P Rad9; PCNA positive cells (PC 3 (human CaP cells)): significantly fewer PCNA positive cells; cellular density of the tumor (H&E staining) (PC 3 (human CaP cells)): clearly reduced the tumor density; γH2AX positive cells (PC 3 (human CaP cells)): a large proportion of positive staining cells; tumor growth (photon emission) (MDA 231-Luc): effective at controlling tumor increase
